This is an account of results in article PMC12383012 (Antioxidants, 2025).

In general, IC50 refers to the concentration at which inhibition is half-maximal. A word on the EC50: it is the concentration at which the effect is half-maximal.

Data set [1] deals with T1, Aβ1–42 (Homo sapiens, UniProt P05067).
T1 construct: the Aβ1–42 peptide (Shanghai Royobiotech Co., Ltd., Shanghai, China); purchased Shanghai Royobiotech Co., Ltd
Kind of data set: Inhibition of Aβ1–42 self-aggregation (ThT fluorescence). Conditions: read-out: % Aβ42 Self-Agg Inhib. The format is biochemical. Here is the method: Firstly, the Aβ1–42 peptide (Shanghai Royobiotech Co., Ltd., Shanghai, China) was treated with 1,1,1,3,3,3-hexafluoropropan-2-ol (HFIP) and then dissolved in a CH3CN/Na2CO3 (300 μM)/NaOH (250 μM) (48.3:48.3:4.3, v/v/v) mixture in order to obtain a stable stock solution (500 μM).
Solutions of 1 mg of the assayed compounds in 2 mL of 1:1 (v/v) DMSO/MeOH (0.5 mg/mL) medium were prepared and then properly diluted with phosphate buffer (0.215 M, pH 8.0) to obtain a 120 μM final concentration. The Aβ1–42 self-aggregation inhibition assays were made based on a reported method, involving the fluorescence emission of thioflavin T (ThT). So, Aβ1–42 (40 μM) was incubated at 37 °C for 24 h in phosphate buffer and in the presence or absence of each ligand (40 μM for all compounds but 4AY4 and 4CY1, for which 20 μM was used). Then, […] 5 μM ThT in 50 mM glycine-NaOH (pH 8.5) buffer were added to each sample before transferring the samples to a 96-well microplate. Blank samples were also prepared without Aβ1–42. The ThT fluorescence was measured (446 and 485 nm excitation and emission wavelengths, respectively), and the percent of self-aggregation inhibition was determined by the equation:I% = 100 − (IFi/IF0 × 100) where IFi and IF0 are the fluorescence intensities, in the presence and the absence of the assayed compound, subtracted from the fluorescence intensities due to the respective blanks. The calculated values were obtained as the mean ± SEM of four different experiments conducted in duplicate. Statistical analysis was performed by a one-way analysis of variance (ANOVA) with a significance threshold set at p < 0.05.

Data set [2] deals with T2, electric eel acetylcholinesterase (eeAChE) (Electrophorus electricus, UniProt O42275).
T2 construct: purchased
Description: Acetylcholinesterase inhibition (adapted Ellman's method). The format is biochemical. The settings on record: read-out: AChE Inhib IC50. Here is the method: (§1) The enzyme inhibition of electric eel acetylcholinesterase (eeAChE) and equine butyrylcholinesterase (eqBChE) was performed according to an adaptation of Elmman’s method. Stock solutions of 1 mg of each compound in 1 mL MeOH were prepared, and adequate dilutions were further made for each ligand. A control measurement (5 replicates without a ligand) and a calibration curve of 5 points with 3 replicates per point were conducted. Each solution included fixed volumes of 4-(2-hydroxyethyl)-1-piperazine-ethanesulfonic acid (HEPES) and cholinesterase (eeAChE or eqBChE), with different volumes of ligand solution. A blank solution containing HEPES and MeOH was also prepared at the same time. After 15 min of reaction, […] (AChI) or butyrylcholine iodide (BChI) and 5,5’-dithiobis-(2-nitrobenzoic acid) (DTNB) were added to both solutions contained in spectrophotometer cuvettes, and the absorbance at 405 nm was recorded for 5 min (time interval = 1 s, slid width = 1 nm). The slope for each calibration point (absorbance versus reaction time) was determined, and the percent inhibition was calculated by using the equation: %Inhibition=100−(vi/v0×100). where vi is the reaction rate (slope) for each point of the calibration with the ligand, and v0 is the initial reaction rate (slope) for the control point (without ligand). Finally, the five-point linear regression (10–50 µL of ligand solution) corresponding to the percentage of enzyme inhibition vs. the compound concentration allowed for the determination of the half maximal inhibitory concentration (IC50, µM) (compound concentration for which enzyme activity is reduced to half). Experiments were performed twice for each ligand. Statistical analysis was performed by a one-way analysis of variance (ANOVA) with a significance threshold set at p < 0.05.
For orientation: DTNB colorimetry detects thiols as they appear.

Data set [3] addresses T3, equine butyrylcholinesterase (eqBChE) (Equus caballus, UniProt P81908).
T3 construct: purchased
Description: Butyrylcholinesterase inhibition (adapted Ellman's method). In kind it is biochemical. The settings on record: for SI (selectivity index): SI = IC50 (AChE)/IC50 (BChE); for IC50: eqBChE, read-out: BChE Inhib IC50. Here is the method:
as §1

Data set [4] in a line: Free-radical-scavenging assay (DPPH method). Conditions: for % AA (radical-scavenging activity): compound concentration 100 μM. Here is the method: The percentage of radical-scavenging activity (%AA, antioxidant capacity) of the RIV hybrids was first determined by the 2,2-diphenyl-1-picrylhydrazyl (DPPH) method using a compound concentration of 100 μM. […] Each calibration point was kept 30 min in darkness, and afterwards, the absorbance was measured at 517 nm. The corresponding antioxidant activity (%AA) was calculated using the equation %AA=ADPPH−Aligand/ADPPH×100. From the plot of %AA versus ligand concentration, EC50 was determined. Three independent experiments were performed, and a statistical analysis was conducted by a one-way analysis of variance (ANOVA) with the significance threshold set at p < 0.05.
The RIV hybrids were screened for their radical-scavenging activity by using the DPPH method. These assays were conducted in two stages: first, preliminary analyses were performed for all the compounds to evaluate the percentage of radical-scavenging activity by using a compound concentration of 100 μM. Afterwards, the compounds showing more than 50% antioxidant activity (AA), under those conditions, were further assessed to evaluate the respective EC50 values.

The test system of data set [5] is SH-SY5Y human neuroblastoma cell line. Description: Protection against iron/ascorbate-induced toxicity (MTT). The format is cell-based. The settings on record: 1 h pre-treatment at highest nontoxic concentration, then 24 h with Fe/Asc. Here is the method:
(§2) Cell viability was assessed using the colorimetric MTT (3-(4,5-dimethylthiazol-2-yl)-2,5-diphenyltetrazolium bromide) assay, as previously described.
(§3) The compounds’ solutions (4AY1-6, 4BY1-3, and 4CY1) were prepared in DMSO to create stock solutions at a concentration of 25 mM, which were then stored at −20 °C. A concentration range from 0.5 µM to 20 µM was screened to identify the highest non-toxic dose. The SH-SY5Y human neuroblastoma cell line (ATCC-CRL-2266) was grown in Dulbecco’s modified Eagle’s medium (DMEM) (Thermo Fisher Scientific-Gibco, Waltham, MA, USA) supplemented with 10% heat-inactivated fetal calf serum, 50 U/mL penicillin, and 50 µg/mL streptomycin at 37 °C in a 5% CO2 atmosphere. The cells were seeded at a density of 0.1 × 10^6 cells/mL (when 48-well plates were used) or 0.15 × 10^6 cells/mL (when 24-well plates were used) one day before the experiment commenced. Following the seeding, the cells were treated with the selected concentrations of compounds for 24 h. After treatment, the cells were washed with PBS and incubated with 150 µL (in 48-well plates) or 200 µL (in 24-well plates) of MTT (0.5 mg/mL) for 2 h at 37 °C with 5% CO2. During this incubation, cellular dehydrogenases converted MTT into formazan crystals, which were subsequently dissolved in 150 µL (in 48-well plates) or 200 µL (in 24-well plates) of 0.04 M HCl/isopropanol, and the absorbance was measured at 570 nm.
To evaluate the compounds’ protective effects against toxicity induced by Aβ1–42 or iron/ascorbate, the cells were pre-treated with each compound for one hour before adding Aβ1–42 or iron/ascorbate, followed by an additional 24-h incubation. Aβ1–42 (Bachem, Torrance, CA, USA) was prepared in sterile water to create a 443 µM stock solution and was added to the cells at a final concentration of 1 µM. Ferrous sulfate and L-ascorbic acid (Sigma Chemical Co., St. Louis, MO, USA) were introduced into the medium at final concentrations of 5 mM and 2.5 mM, respectively. […]

Data set [6] shares this test system. Description: Cell viability dose-response screening (MTT). Conditions: 24 h. In kind it is cell-based. Here is the method:
as §2, §3

The conditions of data set [7]: radical scavenging, parent acid; read-out: AA EC50; cited from earlier work.

Entries after “also recorded” stand apart in the source; their conditions may differ. Where two headings read alike, the source gives them in different places.

T3 sequence (P81908 whole entry): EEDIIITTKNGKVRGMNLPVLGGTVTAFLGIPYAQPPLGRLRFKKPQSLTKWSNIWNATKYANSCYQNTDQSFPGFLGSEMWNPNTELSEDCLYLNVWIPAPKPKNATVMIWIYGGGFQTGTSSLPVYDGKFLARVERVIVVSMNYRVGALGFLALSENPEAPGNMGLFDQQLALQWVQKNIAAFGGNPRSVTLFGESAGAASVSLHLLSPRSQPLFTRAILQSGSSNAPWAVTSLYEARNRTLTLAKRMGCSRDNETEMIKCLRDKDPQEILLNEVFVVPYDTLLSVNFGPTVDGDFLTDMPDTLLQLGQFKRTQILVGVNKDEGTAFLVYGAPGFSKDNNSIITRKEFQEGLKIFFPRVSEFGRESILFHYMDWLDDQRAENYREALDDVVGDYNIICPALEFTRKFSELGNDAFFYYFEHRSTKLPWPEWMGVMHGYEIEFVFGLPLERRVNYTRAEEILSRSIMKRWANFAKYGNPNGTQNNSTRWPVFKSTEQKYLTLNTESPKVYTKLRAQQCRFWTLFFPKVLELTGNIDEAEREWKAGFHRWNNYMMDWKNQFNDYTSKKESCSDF
T2 sequence (O42275 24-633): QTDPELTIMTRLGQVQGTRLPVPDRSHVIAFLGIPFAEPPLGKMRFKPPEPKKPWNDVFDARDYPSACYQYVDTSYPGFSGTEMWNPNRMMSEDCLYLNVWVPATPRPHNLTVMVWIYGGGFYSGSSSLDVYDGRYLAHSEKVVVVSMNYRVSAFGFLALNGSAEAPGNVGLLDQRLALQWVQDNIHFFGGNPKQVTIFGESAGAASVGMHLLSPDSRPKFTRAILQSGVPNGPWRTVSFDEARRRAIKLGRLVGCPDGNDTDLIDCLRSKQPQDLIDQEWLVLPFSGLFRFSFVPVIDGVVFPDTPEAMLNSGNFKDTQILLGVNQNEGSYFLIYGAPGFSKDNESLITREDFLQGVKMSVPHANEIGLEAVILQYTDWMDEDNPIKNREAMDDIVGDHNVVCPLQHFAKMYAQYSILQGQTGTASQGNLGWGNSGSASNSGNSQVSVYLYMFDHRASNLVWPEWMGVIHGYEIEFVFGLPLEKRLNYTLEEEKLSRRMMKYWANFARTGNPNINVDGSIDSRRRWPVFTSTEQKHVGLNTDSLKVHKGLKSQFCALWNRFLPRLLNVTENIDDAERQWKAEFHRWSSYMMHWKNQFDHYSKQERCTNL
T1 sequence (P05067 672-713): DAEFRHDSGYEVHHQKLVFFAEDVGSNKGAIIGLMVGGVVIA

`CCN(C)C(=O)Oc1cccc(NC(=O)/C=C/C=C/c2ccc3c(c2)OCO3)c1` [4AY4, 3-((2E,4E)-5-(Benzo[d][1,3]dioxol-5-yl)penta-2,4-dienamido)phenyl ethyl(methyl)carbamate]: the inhibition at 20 µM in data set [1] (24 h) is 23 ± 3%. For the same molecule, the IC50 was 14.51 ± 0.04 µM in data set [2] and 15.2 ± 0.4 µM in data set [3]. The “SI (selectivity index)” value in data set [3] was 0.9. In data set [4], the “% AA (radical-scavenging activity)” value is listed as <50%. Moreover, in data set [5], the “rescue of cell viability after iron/ascorbate treatment” value is recorded as “capable of rescuing the cell viability; also recorded: significantly improved cell viability”. Moreover, the highest nontoxic concentration in data set [6] (dose given for the Aβ1–42 experiments) is 1 µM; in data set [6] (dose given for the iron/ascorbate experiments), 2.5 µM.
As for `CCN(C)C(=O)Oc1cccc(CNC(=O)C2(C)CCc3c(C)c(O)c(C)c(C)c3O2)c1` (stereo not drawn) [4BY2, 3-((6-Hydroxy-2,5,7,8-tetramethylchromane-2-carboxamido)methyl)phenyl ethyl(methyl)carbamate], the inhibition at 40 µM in data set [1] amounted to 47 ± 3%. In data set [2], the IC50 came to 32 ± 2 µM. For the same molecule, in data set [3], the “SI (selectivity index)” value came to 8.6 and the IC50 was 3.7 ± 0.1 µM. Besides, the “% AA (radical-scavenging activity)” value in data set [4] is 93.9 ± 0.4%. Further, the EC50 in data set [4] (read-out: AA EC50) was found to be 20 ± 0.8 µM. The “rescue of cell viability after iron/ascorbate treatment” value in data set [5] is reported as “capable of rescuing the cell viability; also recorded: significantly improved cell viability”. Also, the highest nontoxic concentration in data set [6] is reported as 1 µM.
With `O=C(O)/C=C/C=C/c1ccc(O)c(O)c1` [(2E,4E)-5-(3,4-dihydroxyphenyl)penta-2,4-dienoic acid], the EC50 in data set [7] was 18.2 ± 0.2 µM.
Turning to `O=C(O)C=Cc1ccc(O)c(O)c1` [caffeic acid, 3,4-dihydroxycinnamic acid], the EC50 in data set [7] is 21.7 ± 0.2 µM.
